Reference: US12258310B2, “Solid peroxyalphahydroxycarboxylic acid generation compositions and the use thereof” (ECOLAB USA INC., priority 2021, dated 2025)
Values joined by “and” are separate entries in the source; they are usually repeats but may differ in a detail not shown here. Equal entries are not always repeated.

How the values were obtained:
[1] = Physical property (vapor pressure, odor) of alphacarboxylic acids and peroxyalphacarboxylic acids; format: physicochemical
[2] = cited from earlier work
[3] = test system: Salmonella ser. Heidelberg, Newport and Braenderup (modified to be resistant to 50 μg/mL nalidixic acid); assay: Antimicrobial efficacy on chicken carcass, 15 second dip; format: cell-based; conditions: for Avg Log10 Survivors / CFU/Surface (CFU/ml × 50) / Log10 Reduction / Log10 Survivors: 15 second dip, drain time 30 minutes, room temperature
Experimental: Antimicrobial Efficacy of Peroxylactic Acid. The antimicrobial efficacy of peroxylactic acid generated from the solid peroxyalphahydroxycarboxylic acid forming composition of Table 4 was evaluated on chicken carcass against Salmonella in comparison to peroxyacetic acid (PAA). The molecular weight of PLA is 106, and PAA 76, therefore the molar equivalent base of the peracids is 500 ppm PLA equals to 359 ppm PAA.

[4] = test system: Listeria monocytogenes ATCC 49594; conditions: known; cited from earlier work
[5] = PLA generation kinetics and pH from solid pellet of Table 4 dissolved in DI water; format: physicochemical
Experimental: Following the successful perhydrolysis reactions of the lactide and glycolide esters, the solid composition shown in Table 4 using a lactide precursor was used to generate peroxylactic acid according to the same reaction scheme in FIG. 1. The lactide precursor was formulated into a solid pellet with citric acid and sodium percarbonate and the solid peroxyalphahydroxycarboxylic acid forming composition was added to water for the perhydrolysis reaction to generate peroxylactic acid (PLA). Beneficially, the citric acid acts as both a buffer and a dispersant or disintegrating reagent to provide effervescence to dissolve the solid composition more quickly into water and initiate the reaction of forming PLA. The reaction kinetics were evaluated by dissolving approximately 2.5 gram pellet as shown in Table 4 in 500 mL DI water to measure PLA generation and pH over time.
The PLA generation were measured on two occasions. […] The initial testing point of 10 minutes provides time for the pellet to dissolve in the water so that PLA generation can begin.
The stability of the tablets is also quantifiable by the chemistry of the reagents as they are capable of self-reacting. As a result, tablet (or solid) stability can also be assessed by the ability or capacity of the tablet to generate PLA after storage as another quantifiable mechanism to confirm stability. This is shown in Example 1, Table 6 compared to Table 5 is a direct comparison of PLA generation profiles of the tablets after 9 months of storage. […] In some embodiments it is preferred that at least about 50% or preferably at least about 80% of the PLA (or peroxyalphahydroxycarboxylic acid) generation is maintained.

[6] = test system: Escherichia coli ATCC 11229; assay: US EPA food contact suspension test (AOAC 960.09); format: cell-based; conditions: 30 seconds, 500 ppm synthetic hard water, ambient (18-20° C.)
Experimental: (§1) Antimicrobial Efficacy of Peroxylactic Acid. The antimicrobial efficacy of peroxylactic acid generated from the solid peroxyalphahydroxycarboxylic acid forming composition of Table 4 was evaluated following the US EPA food contact suspension test protocol (AOAC 960.09) against Staphylococcus aureus and Escherichia coli according to the conditions set forth in Table 7.

[7] = test system: Staphylococcus aureus ATCC 6538; assay: US EPA food contact suspension test (AOAC 960.09); format: cell-based; conditions: 30 seconds, 500 ppm synthetic hard water, ambient (18-20° C.)
Experimental: as §1

[8] = test system: Listeria monocytogenes ATCC 49594; assay: US EPA food contact suspension test (AOAC 960.09), FIG. 3; format: cell-based; conditions: 100 ppm, 30 seconds
Experimental: (§2) Additional Antimicrobial Efficacy of Peroxylactic Acid. Additional antimicrobial efficacy of generated peroxylactic acid was evaluated following the US EPA food contact suspension test protocol (AOAC 960.09) against Salmonella, E. coli, Campylobacter and Listeria according to the conditions set forth in Table 12.

[9] = test system: Salmonella, E. coli, Campylobacter and Listeria; assay: as above; format: cell-based; conditions: as low as 25 ppm, 30 seconds
Experimental: as §2

[10] = approx. 2.5 gram pellet of Table 4 in 500 mL DI water, first PLA generation, 10 min
[11] = approx. 2.5 gram pellet of Table 4 in 500 mL DI water, first PLA generation, 30 min
[12] = approx. 2.5 gram pellet of Table 4 in 500 mL DI water, first PLA generation, 60 min
[13] = approx. 2.5 gram pellet of Table 4 in 500 mL DI water, first PLA generation, 90 min
[14] = approx. 2.5 gram pellet of Table 4 in 500 mL DI water, first PLA generation, 120 min
[15] = approx. 2.5 gram pellet of Table 4 in 500 mL DI water, first PLA generation, 150 min
[16] = approx. 2.5 gram pellet of Table 4 in 500 mL DI water, first PLA generation, 180 min
[17] = approx. 2.5 gram pellet of Table 4 in 500 mL DI water, first PLA generation, 210 min
[18] = approx. 2.5 gram pellet of Table 4 in 500 mL DI water, first PLA generation, 240 min
[19] = same batch of tablets stored under ambient conditions for 9 months, 20 min
[20] = same batch of tablets stored under ambient conditions for 9 months, 30 min
[21] = same batch of tablets stored under ambient conditions for 9 months, 40 min
[22] = same batch of tablets stored under ambient conditions for 9 months, 50 min
[23] = same batch of tablets stored under ambient conditions for 9 months, 60 min
[24] = same batch of tablets stored under ambient conditions for 9 months, 120 min
[25] = same batch of tablets stored under ambient conditions for 9 months, 240 min
[26] = same batch of tablets stored under ambient conditions for 9 months, 300 min
[27] = same batch of tablets stored under ambient conditions for 9 months, 360 min

In the case of `CC(=O)O` [Acetic Acid], the Odor [1] is given as “Sour” and the “Vapor Pressure (20° C.)” value [2] is given as 1.56 KPa.

For `O=C(O)CO` [Glycolic acid], the Odor [1] is given as “Odorless” and the “Vapor Pressure (20° C.)” value [2] is given as 0.003 KPa.

For `CC(O)C(=O)O` (stereo not shown) [Lactic Acid], the Odor [1] is listed as “No irritative odor” and the “Vapor Pressure (20° C.)” value [2] is listed as 0.01 KPa.

With `CC(=O)OO` [PAA, peroxyacetic acid, reference compound] the Odor [1] was “Sharp pungent”, the “Avg Log10 Survivors” value ([3]; 500 ppm) was 6.54 Log10 and the “CFU/Surface (CFU/ml × 50)” value ([3]; 500 ppm) was 4.35E+06 CFU/Surface and 2.35E+06 CFU/Surface and 3.95E+06 CFU/Surface. The “Log10 Reduction” value ([3]; 500 ppm) was 1.09 Log10, the “Log10 Survivors” value ([3]; 500 ppm) was 6.64 Log10 and 6.37 Log10 and 6.60 Log10 and the “Concentration required for greater than 7 log reduction against Listeria” value [4] was “at least 180 ppm”. The “Vapor Pressure (20° C.)” value [2] was 2.06 KPa.

With `CC(O)C(=O)OO` (stereo not shown) [PLA, peroxylactic acid] the Odor [1] was “Odorless”, the “PLA (ppm)” value [5, 10] was 130 ppm and the pH [5, 10] was 6.06. The “PLA (ppm)” value [5, 11] was 222 ppm, the pH [5, 11] was 5.95 and the “PLA (ppm)” value [5, 12] was 236 ppm. The pH [5, 12] was 5.64, the “PLA (ppm)” value [5, 13] was 217 ppm and the pH [5, 13] was 5.41. The “PLA (ppm)” value [5, 14] was 202 ppm, the pH [5, 14] was 5.23 and the “PLA (ppm)” value [5, 15] was 188 ppm. For the same compound, the pH [5, 15] was 5.11, the “PLA (ppm)” value [5, 16] was 170 ppm and the pH [5, 16] was 5.01. The “PLA (ppm)” value [5, 17] was 152 ppm, the pH [5, 17] was 4.93 and the “PLA (ppm)” value [5, 18] was 146 ppm. The pH [5, 18] was 4.87, the “PLA (ppm)” value ([5]; same batch of tablets stored under ambient conditions for 9 months, 10 min) was 122 ppm and the “PLA (ppm)” value [5, 19] was 150 ppm. The pH [5, 19] was 5.73, the “PLA (ppm)” value [5, 20] was 170 ppm and the pH [5, 20] was 5.69. The “PLA (ppm)” value [5, 21] was 198 ppm, the pH [5, 21] was 5.62 and the “PLA (ppm)” value [5, 22] was 198 ppm. The pH [5, 22] was 5.58, the “PLA (ppm)” value [5, 23] was 200 ppm and the pH [5, 23] was 5.49. The “PLA (ppm)” value [5, 24] was 179 ppm, the pH [5, 24] was 5.25 and the “PLA (ppm)” value ([5]; same batch of tablets stored under ambient conditions for 9 months, 180 min) was 160 ppm. For the same compound, the “PLA (ppm)” value [5, 25] was 129 ppm, the pH [5, 25] was 4.82 and the “PLA (ppm)” value [5, 26] was 102 ppm. For the same compound, the pH [5, 26] was 4.74, the “PLA (ppm)” value [5, 27] was 85 ppm and the pH [5, 27] was 4.68. For the same compound, the “Average Log10 Growth” value ([6]; 25 ppm PLA) was 3.25 Log10, the CFU/ml ([6]; 25 ppm PLA) was 1.49E+03 CFU/ml and 2.10E+03 CFU/ml and the “Log10 Growth” value ([6]; 25 ppm PLA) was 3.17 Log10 and 3.32 Log10. The “Log10 Reduction” value ([6]; 25 ppm PLA) was 4.64 Log10, the “Average Log10 Growth” value ([6]; 50 ppm PLA) was less than 1.00 Log10 and the CFU/ml ([6]; 50 ppm PLA) was less than 1.00E+01 CFU/ml. For the same compound, the “Log10 Growth” value ([6]; 50 ppm PLA) was less than 1.00 Log10, the “Log10 Reduction” value ([6]; 50 ppm PLA) was greater than 6.89 Log10 and the “Average Log10 Growth” value ([6]; 100 ppm PLA) was less than 1.00 Log10. The CFU/ml ([6]; 100 ppm PLA) was less than 1.00E+01 CFU/ml, the “Log10 Growth” value ([6]; 100 ppm PLA) was less than 1.00 Log10 and the “Log10 Reduction” value ([6]; 100 ppm PLA) was greater than 6.89 Log10. For the same compound, the “Average Log10 Growth” value ([7]; 50 ppm PLA) was greater than 6.48 Log10, the CFU/ml ([7]; 50 ppm PLA) was greater than 3.00E+06 CFU/ml and the “Log10 Growth” value ([7]; 50 ppm PLA) was greater than 6.48 Log10. For the same compound, the “Log10 Reduction” value ([7]; 50 ppm PLA) was less than 1.32 Log10, the “Average Log10 Growth” value ([7]; 100 ppm PLA) was 5.22 Log10 and the CFU/ml ([7]; 100 ppm PLA) was 2.20E+05 CFU/ml and 1.24E+05 CFU/ml. The “Log10 Growth” value ([7]; 100 ppm PLA) was 5.34 Log10 and 5.09 Log10, the “Log10 Reduction” value ([7]; 100 ppm PLA) was 2.58 Log10 and the “Average Log10 Growth” value ([7]; 150 ppm PLA) was 2.82 Log10. For the same compound, the CFU/ml ([7]; 150 ppm PLA) was 9.20E+02 CFU/ml and 4.80E+02 CFU/ml, the “Log10 Growth” value ([7]; 150 ppm PLA) was 2.96 Log10 and 2.68 Log10 and the “Log10 Reduction” value ([7]; 150 ppm PLA) was 4.98 Log10. The “Average Log10 Growth” value ([7]; 200 ppm PLA) was less than 1.00 Log10, the CFU/ml ([7]; 200 ppm PLA) was less than 1.00E+01 CFU/ml and the “Log10 Growth” value ([7]; 200 ppm PLA) was less than 1.00 Log10. For the same compound, the “Log10 Reduction” value ([7]; 200 ppm PLA) was greater than 6.80 Log10, the “Avg Log10 Survivors” value ([3]; 500 ppm) was 6.55 Log10 and the “CFU/Surface (CFU/ml × 50)” value ([3]; 500 ppm) was 2.90E+06 CFU/Surface and 5.45E+06 CFU/Surface. For the same compound, the “Log10 Reduction” value ([3]; 500 ppm) was 1.08 Log10, the “Log10 Survivors” value ([3]; 500 ppm) was 6.46 Log10 and 6.74 Log10 and the “Micro efficacy (log reduction) compared to peroxyacetic acid” value ([3]; 1000 ppm) was “improved micro efficacy”. The “Avg Log10 Survivors” value ([3]; 1000 ppm) was 6.16 Log10, the “CFU/Surface (CFU/ml × 50)” value ([3]; 1000 ppm) was 1.60E+06 CFU/Surface and 1.85E+06 CFU/Surface and 1.05E+06 CFU/Surface and the “Log10 Reduction” value ([3]; 1000 ppm) was 1.47 Log10. For the same compound, the “Log10 Survivors” value ([3]; 1000 ppm) was 6.20 Log10 and 6.27 Log10 and 6.02 Log10, the “Avg Log10 Survivors” value ([3]; 2000 ppm) was 6.54 Log10 and the “Log10 Reduction” value ([3]; 2000 ppm) was 1.09 Log10. The “Micro efficacy (log reduction) compared to peroxyacetic acid” value ([3]; varying concentrations) was “at least equivalent micro efficacy”, the “log reduction against Listeria” value [8] was “greater than 7 log” and the “Efficacy against various microbes” value [9] was “provides efficacy at low concentration doses”.
